Measurements: ChEMBL document CHEMBL1201862, “PubChem BioAssay data set” (2004)
Calls of active or inactive are those of the source. Rule as the data show it, for most assays here: actives have a measured EC50 and inactives only a lower limit.

How the values were obtained:
[1] = biological target: T1, Protein skinhead-1 (Caenorhabditis elegans, UniProt P34707); assay type: functional
T1 sequence (P34707 whole entry): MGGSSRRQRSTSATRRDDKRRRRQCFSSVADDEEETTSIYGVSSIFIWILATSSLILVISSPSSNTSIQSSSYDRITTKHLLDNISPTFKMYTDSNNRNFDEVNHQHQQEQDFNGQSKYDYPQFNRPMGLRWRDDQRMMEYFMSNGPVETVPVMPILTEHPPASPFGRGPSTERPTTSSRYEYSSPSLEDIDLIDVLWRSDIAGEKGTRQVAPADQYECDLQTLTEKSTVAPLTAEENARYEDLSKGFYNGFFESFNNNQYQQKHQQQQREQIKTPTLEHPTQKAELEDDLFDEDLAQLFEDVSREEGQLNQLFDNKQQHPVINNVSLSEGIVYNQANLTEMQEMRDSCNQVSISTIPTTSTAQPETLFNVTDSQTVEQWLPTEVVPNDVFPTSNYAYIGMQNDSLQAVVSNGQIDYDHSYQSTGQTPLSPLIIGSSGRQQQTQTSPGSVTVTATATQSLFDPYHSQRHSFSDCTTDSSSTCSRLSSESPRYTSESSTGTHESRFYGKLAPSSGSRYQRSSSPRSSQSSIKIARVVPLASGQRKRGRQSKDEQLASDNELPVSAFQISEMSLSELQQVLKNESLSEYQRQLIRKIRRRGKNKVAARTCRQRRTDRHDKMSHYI

[2] = Luminescence Cell-Based Dose Response HTS to Identify Inhibitors of 5'UTR Stem-Loop Driven Prion Protein mRNA Translation in H4 Neuroglioblastoma Cells. [Related pubchem assays: 1827 (Project Summary), 1813 (Primary HTS)]; assay type: functional
[3] = inhibitors of SNCA 5'UTR-driven reporter translation, confirmation, H4 neuroglioma cells, luminescence (AID 1988); assay type: functional, cell-based
[4] = biological target: T2, Heat shock factor protein 1 (Mus musculus, UniProt P38532); experiment: inhibition of MG132-induced HSE-luciferase signal, confirmation, cell-based, NIH3T3, luminescence, dose retest (AID 2382); assay type: functional;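 also: NIH3T3 fibroblasts with HSF1-driven luciferase reporter stressed by proteasome inhibitor MG132; luminescence from HSF1-driven luciferase expression after 8 hours of MG132 stress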
T2 sequence (P38532 whole entry): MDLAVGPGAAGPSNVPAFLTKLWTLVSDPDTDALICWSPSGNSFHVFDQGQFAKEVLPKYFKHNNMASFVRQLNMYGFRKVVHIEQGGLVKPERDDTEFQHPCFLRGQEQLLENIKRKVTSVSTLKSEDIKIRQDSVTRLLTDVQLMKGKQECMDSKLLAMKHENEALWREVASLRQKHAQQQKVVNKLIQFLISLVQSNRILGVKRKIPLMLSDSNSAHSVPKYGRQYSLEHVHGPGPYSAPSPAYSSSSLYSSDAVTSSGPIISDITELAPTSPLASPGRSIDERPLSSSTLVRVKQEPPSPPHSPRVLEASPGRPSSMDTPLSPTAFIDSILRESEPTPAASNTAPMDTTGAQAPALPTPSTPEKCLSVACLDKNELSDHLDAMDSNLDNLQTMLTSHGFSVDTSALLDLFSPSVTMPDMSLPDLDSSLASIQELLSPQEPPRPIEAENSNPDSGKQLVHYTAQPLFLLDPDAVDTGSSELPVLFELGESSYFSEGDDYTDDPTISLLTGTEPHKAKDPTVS

[5] = inhibitors of firefly luciferase expression or activity, dose response, H4 neuroglioma cells, luminescence (AID 1990); assay type: functional, cell-based
[6] = biological target: T3, Corticotropin-releasing factor receptor 2/Corticotropin-releasing factor-binding protein (Homo sapiens, UniProt P24387+Q13324); experiment: activators of CRF receptor 2 with binding protein – uHTS hits, confirmation (AID 602473); assay type: functional; details: read-out: EC50_Mean
T3 sequence (Q13324 whole entry): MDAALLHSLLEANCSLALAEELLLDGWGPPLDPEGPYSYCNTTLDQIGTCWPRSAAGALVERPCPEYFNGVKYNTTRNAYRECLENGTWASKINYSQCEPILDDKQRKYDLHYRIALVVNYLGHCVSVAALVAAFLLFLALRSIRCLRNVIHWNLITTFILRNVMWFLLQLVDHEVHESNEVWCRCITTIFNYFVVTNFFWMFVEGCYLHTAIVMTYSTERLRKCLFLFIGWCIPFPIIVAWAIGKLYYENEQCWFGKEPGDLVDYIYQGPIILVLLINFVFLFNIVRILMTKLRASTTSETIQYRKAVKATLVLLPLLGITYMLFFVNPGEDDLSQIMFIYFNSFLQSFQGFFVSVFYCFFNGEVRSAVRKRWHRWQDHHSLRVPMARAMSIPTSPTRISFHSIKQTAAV
T3 sequence (P24387 whole entry): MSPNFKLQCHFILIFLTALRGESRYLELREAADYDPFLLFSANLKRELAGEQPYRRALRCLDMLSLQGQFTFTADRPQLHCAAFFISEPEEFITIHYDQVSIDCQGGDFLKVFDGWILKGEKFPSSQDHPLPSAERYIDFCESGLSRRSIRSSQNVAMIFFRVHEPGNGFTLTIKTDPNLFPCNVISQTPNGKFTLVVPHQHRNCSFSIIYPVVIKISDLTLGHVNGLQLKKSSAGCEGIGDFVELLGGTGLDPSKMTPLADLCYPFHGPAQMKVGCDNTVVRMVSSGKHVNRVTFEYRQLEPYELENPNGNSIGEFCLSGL

[7] = biological target: T3, Corticotropin-releasing factor receptor 2/Corticotropin-releasing factor-binding protein; experiment: Dose Response confirmation of uHTS hits for small molecule antagonists of the CRF-binding protein and CRF-R2 receptor complex.; assay type: functional; details: read-out: IC50_Mean
[8] = biological target: Cytochrome P450 3A4 (Homo sapiens, UniProt P08684);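 also: CYP3A4 tested as one member of a cytochrome P450 panel screen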
Sequence of Cytochrome P450 3A4 (P08684 whole entry): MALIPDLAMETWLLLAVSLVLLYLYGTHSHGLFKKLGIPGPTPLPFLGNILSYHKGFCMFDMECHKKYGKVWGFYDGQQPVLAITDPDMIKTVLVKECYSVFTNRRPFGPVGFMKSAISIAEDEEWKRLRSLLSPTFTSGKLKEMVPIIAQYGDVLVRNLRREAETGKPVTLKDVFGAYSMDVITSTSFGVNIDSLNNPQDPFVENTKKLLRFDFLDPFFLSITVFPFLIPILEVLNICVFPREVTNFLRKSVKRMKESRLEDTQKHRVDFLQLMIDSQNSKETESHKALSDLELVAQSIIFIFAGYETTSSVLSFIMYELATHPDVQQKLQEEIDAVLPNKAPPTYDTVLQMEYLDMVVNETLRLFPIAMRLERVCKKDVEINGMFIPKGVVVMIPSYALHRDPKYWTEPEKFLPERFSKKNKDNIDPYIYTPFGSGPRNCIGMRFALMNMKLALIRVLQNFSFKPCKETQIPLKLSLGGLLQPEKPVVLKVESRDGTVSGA

[9] = biological target: Cytochrome P450 2C9 (Homo sapiens, UniProt P11712)
Sequence of Cytochrome P450 2C9 (P11712 whole entry): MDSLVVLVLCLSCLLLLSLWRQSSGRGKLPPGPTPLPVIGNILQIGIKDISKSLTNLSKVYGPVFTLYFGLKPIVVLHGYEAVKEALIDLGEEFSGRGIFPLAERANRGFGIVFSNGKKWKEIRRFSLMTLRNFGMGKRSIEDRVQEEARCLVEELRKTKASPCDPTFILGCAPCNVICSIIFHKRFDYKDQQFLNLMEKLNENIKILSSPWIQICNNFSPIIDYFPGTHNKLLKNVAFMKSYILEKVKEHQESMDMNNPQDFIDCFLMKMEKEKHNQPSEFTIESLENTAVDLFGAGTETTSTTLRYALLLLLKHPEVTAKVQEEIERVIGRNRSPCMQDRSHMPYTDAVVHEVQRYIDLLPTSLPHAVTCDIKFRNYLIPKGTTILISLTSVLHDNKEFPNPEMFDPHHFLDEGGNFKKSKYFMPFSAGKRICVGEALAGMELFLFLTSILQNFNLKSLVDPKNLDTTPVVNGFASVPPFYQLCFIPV

[10] = biological target: T4, Replicative DNA helicase DnaB (Mycobacterium tuberculosis, UniProt P9WMR3); experiment: DnaB intein splicing inhibitors, dose response, biochemical, cell-free fluorescence (AID 449749); assay type: functional
T4 sequence (P9WMR3 whole entry): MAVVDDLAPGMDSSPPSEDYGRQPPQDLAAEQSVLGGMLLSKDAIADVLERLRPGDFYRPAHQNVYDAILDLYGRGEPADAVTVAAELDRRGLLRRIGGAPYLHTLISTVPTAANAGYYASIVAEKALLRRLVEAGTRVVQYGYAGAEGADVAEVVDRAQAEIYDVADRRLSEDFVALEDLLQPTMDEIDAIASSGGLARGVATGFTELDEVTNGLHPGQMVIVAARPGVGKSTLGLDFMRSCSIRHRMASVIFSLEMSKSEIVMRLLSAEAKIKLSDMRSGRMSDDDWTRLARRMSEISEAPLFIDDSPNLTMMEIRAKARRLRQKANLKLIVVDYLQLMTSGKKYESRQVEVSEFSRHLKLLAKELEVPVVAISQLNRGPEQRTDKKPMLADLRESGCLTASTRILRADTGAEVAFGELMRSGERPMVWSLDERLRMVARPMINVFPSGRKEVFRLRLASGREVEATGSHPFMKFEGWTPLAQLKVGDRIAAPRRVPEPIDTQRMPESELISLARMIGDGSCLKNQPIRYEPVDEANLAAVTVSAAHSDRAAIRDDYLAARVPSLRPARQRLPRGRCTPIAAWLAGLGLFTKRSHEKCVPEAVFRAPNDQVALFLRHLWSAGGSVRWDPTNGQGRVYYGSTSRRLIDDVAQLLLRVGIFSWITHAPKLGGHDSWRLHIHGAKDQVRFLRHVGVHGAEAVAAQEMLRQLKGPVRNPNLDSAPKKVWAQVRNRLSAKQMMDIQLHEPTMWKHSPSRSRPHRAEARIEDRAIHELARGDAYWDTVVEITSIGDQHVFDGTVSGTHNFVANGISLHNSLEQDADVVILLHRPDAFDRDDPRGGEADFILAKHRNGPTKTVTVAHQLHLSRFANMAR

[11] = biological target: T5, Protein RecA (Mycobacterium tuberculosis, UniProt P9WHJ3); experiment: Fluorescence Cell-Free Homogeneous Dose Retest to Identify Inhibitors of RecA-Intein Splicing Activity. [Related pubchem assays (depositor defined):AID2097, AID2223, AID489010, AID492950]; assay type: functional
T5 sequence (P9WHJ3 whole entry): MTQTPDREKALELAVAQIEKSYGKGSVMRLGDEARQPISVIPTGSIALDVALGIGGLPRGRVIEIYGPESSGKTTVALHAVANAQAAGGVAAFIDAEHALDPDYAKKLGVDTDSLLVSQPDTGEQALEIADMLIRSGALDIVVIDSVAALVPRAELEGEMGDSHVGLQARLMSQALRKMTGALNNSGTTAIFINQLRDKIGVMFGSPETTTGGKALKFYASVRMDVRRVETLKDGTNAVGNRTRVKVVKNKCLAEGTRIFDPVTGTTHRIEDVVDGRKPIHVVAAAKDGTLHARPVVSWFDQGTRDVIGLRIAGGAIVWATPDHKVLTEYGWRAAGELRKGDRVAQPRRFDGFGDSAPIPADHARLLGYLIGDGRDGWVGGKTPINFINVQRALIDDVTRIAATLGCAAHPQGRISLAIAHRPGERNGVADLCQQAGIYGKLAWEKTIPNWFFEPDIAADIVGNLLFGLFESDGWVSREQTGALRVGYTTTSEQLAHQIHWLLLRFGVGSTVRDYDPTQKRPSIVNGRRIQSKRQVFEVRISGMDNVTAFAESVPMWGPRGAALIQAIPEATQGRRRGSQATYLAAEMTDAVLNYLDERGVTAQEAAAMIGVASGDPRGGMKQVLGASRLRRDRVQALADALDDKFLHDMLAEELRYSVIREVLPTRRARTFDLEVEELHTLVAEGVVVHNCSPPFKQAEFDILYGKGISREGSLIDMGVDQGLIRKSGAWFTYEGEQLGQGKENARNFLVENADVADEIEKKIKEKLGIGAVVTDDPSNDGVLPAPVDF

| SMILES | IC50 [1] | EC50 [2] | EC50 [3] | EC50 [6] | IC50 [7] | further results |
| --- | --- | --- | --- | --- | --- | --- |
| C[C@](N)(CCP(=O)(O)O)C(=O)O | > 100 µM (inactive) |  |  |  |  |  |
| Cc1cc(/C(O)=C(/C([S-])=Nc2ccccc2)[n+]2ccccc2)c(C)n1-c1ccccc1 |  | > 120 µM (not active) | > 120 µM (not active) |  |  | EC50 [4]: 2.53 µM (active); EC50 [5]: > 120 µM (not active) |
| Cc1cccc(NC2=NC(=O)/C(=C/c3cccn3C)S2)c1C | > 100 µM (inactive) |  |  |  |  |  |
| O=C1C(=C2SCCCS2)CC/C1=C\c1ccc(F)cc1 |  | 4.36 µM (active) | 0.116 µM (active) |  |  | EC50 [5]: 0.238 µM (active) |
| CC(C)OC(=O)CSc1nnnn1-c1ccc2c(c1)OCCO2 | > 100 µM (inactive) |  |  |  |  |  |
| COC(=O)C(F)(F)Sc1c(C)[nH]c2ccccc12 |  |  |  | > 53 µM (inactive) | 15.4 µM (active) |  |
| O=C(Cc1c(O)c2ccccc2[nH]c1=O)OC1CCCCC1 |  |  |  | > 53 µM (inactive) | > 47.1 µM (inactive) |  |
| COc1ccc(OC)c(Nc2nc(-c3cccc([N+](=O)[O-])c3)nc3ccccc23)c1 |  | 21.7 µM (active) | 69.3 µM (active) |  |  | AC50 [8]: 2.82 µM (inconclusive); EC50 [5]: > 120 µM (not active); AC50 [9]: 0.355 µM (inconclusive) |
| CC1CCc2c(C(=O)Nc3ccccn3)csc2C1 (stereo not given) |  |  |  | > 53 µM (inactive) | > 47.1 µM (inactive) |  |
| O=C(NCc1ccc(F)cc1)C(=O)NCC1OCCN1C(=O)c1ccc(Cl)cc1 (stereo not given) |  |  |  | > 53 µM (inactive) | > 47.1 µM (inactive) |  |
| O=C(CSc1nc2ccccc2c(=O)n1Cc1ccco1)N1CCCC1 |  | > 120 µM (not active) | > 120 µM (not active) |  |  | EC50 [5]: 20.3 µM (active) |
| C=CCN(c1ccccc1)S(=O)(=O)c1cccc(C(=O)OCC(=O)NCCOC)c1 |  |  |  | > 53 µM (inactive) | > 47.1 µM (inactive) |  |
| O=C(Nc1ccc(S(=O)(=O)NC2CCCCC2)cc1)c1ccco1 |  | > 120 µM (not active) | > 120 µM (not active) |  |  | EC50 [5]: 26.7 µM (active) |
| COc1cc2c(cc1OC)C(C)N(C(=O)c1cc(C)on1)CC2 (stereo not given) |  | 3.88 µM (active) | 0.415 µM (active) |  |  | EC50 [5]: 4.12 µM (active) |
| O=C(Nc1ccc(OC(=O)N2CCCC2)cc1)N1CCOCC1 | > 100 µM (inactive) |  |  |  |  |  |
| Cc1nc2nc(CSc3nc4ccccc4s3)cc(O)n2n1 | > 100 µM (inactive) |  |  |  |  |  |
| COc1ccccc1NC(=O)CN1C(=O)CCS(=O)(=O)c2ccccc21 |  |  |  | > 53 µM (inactive) | > 47.1 µM (inactive) |  |
| CCn1c(CCC(=O)Nc2nc3c(s2)CCCC3)nc2cc(S(=O)(=O)N(C)C)ccc21 | > 100 µM (inactive) |  |  |  |  |  |
| Cc1c(OCC(=O)Nc2cccnc2)ccc2c3c(c(=O)oc12)CCC3 |  | > 120 µM (not active) | > 120 µM (not active) |  |  | AC50 [10]: 2.65 µM (active); EC50 [11]: 2.26 µM (active) |
| CC(C)NC(=O)COC(=O)c1ccc(S(=O)(=O)N2CCCC2)cc1 |  | > 120 µM (not active) | > 120 µM (not active) |  |  | EC50 [5]: > 120 µM (not active) |
| CCCOc1cc(C)c(S(=O)(=O)NCc2cccs2)cc1C | > 100 µM (inactive) |  |  |  |  |  |
| Cc1ccc(-c2ccc(SCC(=O)NCC3CCCO3)nn2)cc1 (stereo not given) |  |  |  | > 53 µM (inactive) | > 47.1 µM (inactive) |  |
| O=Nc1nc2ncccn2c1-c1ccccc1 |  |  |  | > 53 µM (inactive) | > 47.1 µM (inactive) |  |
| Clc1ccc(N2CCN(c3ccnc(Cl)n3)CC2)cc1 | 26.3 µM (active) |  |  |  |  |  |
| COc1ccc(Cc2c(-c3ccco3)nc3c(C)cc(Br)cn23)c(C)c1 | > 100 µM (inactive) |  |  |  |  |  |
| Cc1ccc(S(=O)(=O)NC2=NCN(C3CCN(Cc4ccccc4)CC3)CN2)cc1 |  |  |  | > 53 µM (inactive) | > 47.1 µM (inactive) |  |
